Measurements as given in patent US20250171431A1, “HETEROCYCLIC INHIBITORS OF IGF-1R FOR TREATMENT OF DISEASE” (HORIZON THERAPEUTICS IRELAND DAC, priority 2023, published 2025).

Biological target: IGF-1R (Homo sapiens (Human), UniProt P08069)
Test: Example B-1: IGF-1R Assay (PC3 cells, IGF1 stimulation, AlphaLISA)
Type: cell-based
Conditions: 200 ng/mL IGF1 stimulation, read-out: Biological Activity against IGF-1R IC50
Experimental: 50K PC3 cells were seeded on day 1 in 50 μL of media in 96-well plate and incubated overnight at 37° C., 5% CO2. On day 2, all cells were expected to be at 80-90% confluency. Cells were starved for two hours by changing the media to 90 μL of EMEM serum-free media and incubated for 2 hours. Next, cells were treated with 10 μL of 10× concentrated and 3× serially diluted compounds for two hours. It makes 1× of compounds in 100 μL media. This was followed by stimulation of cells with 11×IGF1 for 30 min in 10 μL of serum-free EMEM media at the final concentration of 200 ng/mL.
The media was removed and replaced by 50 μL of 1× lysis buffer from the AlphaLISA kit (with 1× of cOmplete™ protease inhibitor). The plates were sealed, and cells were allowed to lyse for 10 min in the shaker before storing the plate at −20° C. until used. The AlphaLISA assay with processed cell lysates were performed as described in the protocol. Briefly, 10 μL of the undiluted sample were loaded to 384 well Optiplates and 5 μL of the acceptor mix (as described in the AlphaLISA kit) was added to each well. The plates were sealed and briefly vortexed followed by the incubation at RT for 3 hours. In the dark, 5 μL of donor mix was added to each well. All plates were sealed and stored at RT overnight. The plates were read in EnVision reader using standard AlphaLISA settings.
Compound activity was analyzed using CBIS data analysis suite (ChemInnovation, CA). Percentage inhibition was calculated using the following formula: % Inhibition=100%×(1−(mean RLU of test sample−mean RLU of vehicle control)/(mean RLU of EC80 control−mean RLU of vehicle control)). The activity for representative examples of the invention is shown in the following table, wherein A: IC50≤500 nM; B: 500 nM<IC50≤2 μM; C: 2 μM<IC50≤10 μM; D: IC50>10 μM.

IGF-1R, sequence (P08069 31-1367): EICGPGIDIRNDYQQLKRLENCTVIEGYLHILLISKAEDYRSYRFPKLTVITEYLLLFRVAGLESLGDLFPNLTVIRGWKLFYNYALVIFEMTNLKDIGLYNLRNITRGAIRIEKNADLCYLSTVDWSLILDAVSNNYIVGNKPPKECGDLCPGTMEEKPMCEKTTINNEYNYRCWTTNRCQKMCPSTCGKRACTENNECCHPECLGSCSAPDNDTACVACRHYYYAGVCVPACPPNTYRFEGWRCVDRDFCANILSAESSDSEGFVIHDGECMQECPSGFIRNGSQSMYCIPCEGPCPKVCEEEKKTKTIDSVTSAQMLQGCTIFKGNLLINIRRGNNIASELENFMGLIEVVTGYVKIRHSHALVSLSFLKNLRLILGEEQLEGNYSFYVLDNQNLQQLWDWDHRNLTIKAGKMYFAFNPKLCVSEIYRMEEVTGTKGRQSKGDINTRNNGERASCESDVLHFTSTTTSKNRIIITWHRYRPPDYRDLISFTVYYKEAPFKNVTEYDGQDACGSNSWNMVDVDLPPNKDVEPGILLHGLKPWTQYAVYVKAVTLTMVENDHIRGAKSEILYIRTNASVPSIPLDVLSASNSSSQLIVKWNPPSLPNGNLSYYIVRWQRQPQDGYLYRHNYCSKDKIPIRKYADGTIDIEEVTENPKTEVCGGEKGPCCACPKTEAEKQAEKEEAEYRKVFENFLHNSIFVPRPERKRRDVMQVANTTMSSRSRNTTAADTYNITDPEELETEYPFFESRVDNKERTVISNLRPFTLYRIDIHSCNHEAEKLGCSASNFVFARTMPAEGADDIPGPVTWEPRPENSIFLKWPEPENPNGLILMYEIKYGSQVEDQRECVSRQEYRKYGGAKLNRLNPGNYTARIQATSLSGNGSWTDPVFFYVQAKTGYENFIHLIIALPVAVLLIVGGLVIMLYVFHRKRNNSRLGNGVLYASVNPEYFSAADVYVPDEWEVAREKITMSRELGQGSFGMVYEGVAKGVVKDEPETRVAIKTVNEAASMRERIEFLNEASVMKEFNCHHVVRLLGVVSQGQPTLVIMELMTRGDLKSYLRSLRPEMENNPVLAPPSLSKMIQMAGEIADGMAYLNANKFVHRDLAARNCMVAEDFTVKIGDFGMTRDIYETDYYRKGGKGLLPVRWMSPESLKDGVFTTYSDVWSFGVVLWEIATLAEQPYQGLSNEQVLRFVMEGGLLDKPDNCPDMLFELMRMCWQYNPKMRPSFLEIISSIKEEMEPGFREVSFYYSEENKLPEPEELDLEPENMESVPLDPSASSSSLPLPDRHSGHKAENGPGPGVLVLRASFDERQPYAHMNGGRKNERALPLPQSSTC

**Q.** How did the IC50 turn out when “7-(2-{3-methoxy-4-[(1s,3s)-3- (dimethylamino)cyclobutoxy] phenylamino}-4- pyrimidinylamino)-2,2- dimethyl-2,4-dihydro-1-oxa- 4,5-diaza-3-naphthalenone [Compound 288]” was run?
**A.** 500 to 2000 nM

**Q.** `COc1cc(Nc2nccc(Nc3cnc4ccccc4c3)n2)ccc1N1CCC(N2CCN(C)CC2)CC1` [Compound 2, 2-{3-methoxy-4-[4-(4-methyl-1-piperazinyl)-1-piperidyl]phenylamino}-4-(3-quinolylamino)pyrimidine] was tested. Which IC50 did it give?
**A.** ≤ 500 nM

**Q.** With `COc1cc(Nc2nccc(Nc3ccc4c(n3)CC3CCC4N3C)n2)ccc1OCCCN1CCCCC1` (centres unmarked) [Compound 4, 2-[3-methoxy-4-(3-piperidinopropoxy)phenylamino]-4-(12-methyl-6,12-diazatricyclo[7.2.1.0^2,7]dodeca-2,4,6-trien-5-ylamino)pyrimidine] as the compound, how does the IC50 read?
**A.** 2000 to 10000 nM

**Q.** How did the IC50 turn out when `COc1cc(Nc2nccc(Nc3cnc4c(C(F)(F)F)cccc4c3)n2)ccc1OCCCN1CCCCC1` [Compound 5, 2-[3-methoxy-4-(3-piperidinopropoxy)phenylamino]-4-[8-(trifluoromethyl)-3-quinolylamino]pyrimidine] was run?
**A.** ≤ 500 nM

**Q.** How did the IC50 turn out when `COc1cc(Nc2nccc(Nc3cnc4ccc(OC(F)(F)F)cc4c3)n2)ccc1OCCCN1CCCCC1` [Compound 6, 2-[3-methoxy-4-(3-piperidinopropoxy)phenylamino]-4-(6-trifluoromethoxy-3-quinolylamino)pyrimidine] was run?
**A.** ≤ 500 nM

**Q.** Which IC50 does the source give for `COc1cc(Nc2nccc(Nc3cnc4c(OC(F)(F)F)cccc4c3)n2)ccc1O[C@H]1C[C@H](N(C)C)C1` [Compound 7, 2-{3-methoxy-4-[(1r,3r)-3-(dimethylamino)cyclobutoxy]phenylamino}-4-(8-trifluoromethoxy-3-quinolylamino)pyrimidine] here?
**A.** ≤ 500 nM

**Q.** `COc1cc(Nc2nccc(Nc3cnc4cc(OC(F)(F)F)ccc4c3)n2)ccc1O[C@H]1C[C@H](N(C)C)C1` [Compound 8, 2-{3-methoxy-4-[(1r,3r)-3-(dimethylamino)cyclobutoxy]phenylamino}-4-(7-trifluoromethoxy-3-quinolylamino)pyrimidine] was tested. Which IC50 did it give?
**A.** ≤ 500 nM

**Q.** For `COc1cc(Nc2nccc(Nc3cnc4cc(NC(C)=O)ccc4c3)n2)ccc1O[C@H]1C[C@@H](N(C)C)C1` [Compound 9, N-[3-(2-{3-methoxy-4-[(1s,3s)-3-(dimethylamino)cyclobutoxy]phenylamino}-4-pyrimidinylamino)-7-quinolyl]acetamide], which IC50 is on record?
**A.** ≤ 500 nM

**Q.** With `COc1cc(Nc2nccc(Nc3cc4ccccc4[nH]c3=O)n2)cnc1O[C@H]1C[C@@H](N(C)C)C1` [Compound 11, 3-(2-{5-methoxy-6-[(1s,3s)-3-(dimethylamino)cyclobutoxy]-3-pyridylamino}-4-pyrimidinylamino)-2(1H)-quinolinone] as the compound, how does the IC50 read?
**A.** ≤ 500 nM

**Q.** How did the IC50 turn out when `COc1cc(Nc2nccc(Nc3cnc4cc(N)ccc4c3)n2)ccc1O[C@H]1C[C@@H](N(C)C)C1` [Compound 12, 4-(7-amino-3-quinolylamino)-2-{3-methoxy-4-[(1s,3s)-3-(dimethylamino)cyclobutoxy]phenylamino}pyrimidine] was run?
**A.** ≤ 500 nM

**Q.** How did the IC50 turn out when `COc1cc(Nc2nccc(Nc3cnc4ccccc4c3)n2)ccc1OCCCN1CCOCC1` [Compound 14, 2-[3-methoxy-4-(3-morpholinopropoxy)phenylamino]-4-(3-quinolylamino)pyrimidine] was run?
**A.** ≤ 500 nM

**Q.** For `COc1cc(Nc2nccc(Nc3cnc4ccccc4c3)n2)ccc1O[C@H]1CC[C@H](N2CCOCC2)CC1` [Compound 16, 2-{3-methoxy-4-[(1r,4r)-4-morpholinocyclohexyloxy]phenylamino}-4-(3-quinolylamino)pyrimidine], which IC50 is on record?
**A.** ≤ 500 nM

**Q.** `COc1cc(Nc2nccc(Nc3cnc4ccccc4c3)n2)ccc1O[C@H]1CC[C@@H](N2CCOCC2)CC1` [Compound 18, 2-{3-methoxy-4-[(1s,4s)-4-morpholinocyclohexyloxy]phenylamino}-4-(3-quinolylamino)pyrimidine] was tested. Which IC50 did it give?
**A.** ≤ 500 nM

**Q.** Which IC50 does the source give for `COc1cc(O[C@H]2C[C@@H](N(C)C)C2)ccc1Nc1nccc(Nc2cnc3ccccc3c2)n1` [Compound 19, 2-{2-methoxy-4-[(1s,3s)-3-(dimethylamino)cyclobutoxy]phenylamino}-4-(3-quinolylamino)pyrimidine] here?
**A.** ≤ 500 nM

**Q.** Which IC50 does the source give for `COc1cc(OCCCN2CCCCC2)ccc1Nc1nccc(Nc2cnc3ccccc3c2)n1` [Compound 20, 2-[2-methoxy-4-(3-piperidinopropoxy)phenylamino]-4-(3-quinolylamino)pyrimidine] here?
**A.** ≤ 500 nM

**Q.** `COc1cc(Nc2nccc(Nc3cnc4ccccc4c3)n2)ccc1O[C@H]1C[C@H](N2CCOCC2)C1` [Compound 22, 2-{3-methoxy-4-[(1r,3r)-3-morpholinocyclobutoxy]phenylamino}-4-(3-quinolylamino)pyrimidine] was tested. Which IC50 did it give?
**A.** ≤ 500 nM

**Q.** For `COc1cc(Nc2nccc(Nc3cnc4c(c3)OCCO4)n2)ccc1O[C@H]1C[C@H](N2CCOCC2)C1` [Compound 23, 4-(2,3-dihydro-1,4-dioxa-5-aza-7-naphthylamino)-2-{3-methoxy-4-[(1r,3r)-3-morpholinocyclobutoxy]phenylamino}pyrimidine], which IC50 is on record?
**A.** ≤ 500 nM

**Q.** For `COc1cc(Nc2nccc(Nc3cnc4ccccc4c3)n2)ccc1O[C@H]1C[C@H](N2CCS(=O)(=O)CC2)C1` [Compound 24], which IC50 is on record?
**A.** ≤ 500 nM

**Q.** For `COc1cc(Nc2nccc(Nc3cnc4ccc(Cl)cc4c3)n2)ccc1O[C@H]1C[C@H](N2CCS(=O)(=O)CC2)C1` [Compound 25, 4-[(1r,3r)-3-{4-[4-(6-chloro-3-quinolylamino)-2-pyrimidinylamino]-2-methoxyphenoxy}cyclobutyl]-1λ^6,4-thiazinane-1,1-dione], which IC50 is on record?
**A.** ≤ 500 nM

**Q.** How did the IC50 turn out when `c1ccc2ncc(Nc3ccnc(Nc4ccc(O[C@H]5C[C@H](N6CCOCC6)C5)cc4)n3)cc2c1` [Compound 26, 4-(3-quinolylamino)-2-{p-[(1r,3r)-3-morpholinocyclobutoxy]phenylamino}pyrimidine] was run?
**A.** ≤ 500 nM

**Q.** With `CN(C)[C@H]1C[C@H](Oc2ccc(Nc3nccc(Nc4cnc5ccccc5c4)n3)cc2)C1` [Compound 27, 4-(3-quinolylamino)-2-{p-[(1r,3r)-3-(dimethylamino)cyclobutoxy]phenylamino}pyrimidine] as the compound, how does the IC50 read?
**A.** ≤ 500 nM

**Q.** Which IC50 does the source give for `c1ccc2ncc(Nc3ccnc(Nc4ccc(O[C@H]5C[C@@H](N6CCOCC6)C5)cc4)n3)cc2c1` [Compound 28, 4-(3-quinolylamino)-2-{p-[(1s,3s)-3-morpholinocyclobutoxy]phenylamino}pyrimidine] here?
**A.** ≤ 500 nM

**Q.** `CN1[C@@H]2COC[C@H]1C[C@@H](Oc1ccc(Nc3nccc(Nc4cnc5ccccc5c4)n3)cc1)C2` [Compound 29, 2-(p-{(1R,5S,7r)-9-methyl-3-oxa-9-azabicyclo[3.3.1]non-7-yloxy}phenylamino)-4-(3-quinolylamino)pyrimidine] was tested. Which IC50 did it give?
**A.** ≤ 500 nM

**Q.** For `CN1[C@@H]2COC[C@H]1C[C@H](Oc1ccc(Nc3nccc(Nc4cnc5ccccc5c4)n3)cc1)C2` [Compound 30, 2-(p-{(1R,5S,7s)-9-methyl-3-oxa-9-azabicyclo[3.3.1]non-7-yloxy}phenylamino)-4-(3-quinolylamino)pyrimidine], which IC50 is on record?
**A.** ≤ 500 nM

**Q.** Which IC50 does the source give for `c1ccc2ncc(Nc3ccnc(Nc4ccc(OCCCN5CCOCC5)nc4)n3)cc2c1` [Compound 31, 2-[6-(3-morpholinopropoxy)-3-pyridylamino]-4-(3-quinolylamino)pyrimidine] here?
**A.** ≤ 500 nM

**Q.** For `COc1cc(Nc2nccc(Nc3cnc4ccc(Br)cc4c3)n2)ccc1O[C@H]1CC[C@@H](N2CCOCC2)CC1` [Compound 32, 4-(6-bromo-3-quinolylamino)-2-{3-methoxy-4-[(1s,4s)-4-morpholinocyclohexyloxy]phenylamino}pyrimidine], which IC50 is on record?
**A.** ≤ 500 nM
